These results are taken from article PMC9841589, “Identification of 2-Aminoacyl-1,3,4-thiadiazoles as Prostaglandin E2 and Leukotriene Biosynthesis Inhibitors” (ACS Medicinal Chemistry Letters, 2022).

In one experiment the target is T1, mPGES-1 (Homo sapiens, UniProt O14684).
T1 construct: endogenous in cells; host or cells: A549 cells stimulated with IL-1β; microsomal fraction
T1 sequence (O14684 1-152): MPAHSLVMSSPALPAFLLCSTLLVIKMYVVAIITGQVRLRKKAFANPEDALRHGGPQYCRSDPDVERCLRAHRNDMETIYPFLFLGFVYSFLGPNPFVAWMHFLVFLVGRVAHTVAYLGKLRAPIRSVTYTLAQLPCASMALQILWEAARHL
The experiment in a line: Cell-free mPGES-1 activity assay (PGE2 biosynthesis). To be noted: for remaining activity at 10 µM: percentage of control (100%), read-out: mPGES-1 residual activity at 10 μM (%); for IC50: n = 3, read-out: IC50 value ± SEM (mPGES-1, cell-free). It is filed as biochemical. An excerpt: (Table 1). […] From the structural point of view, the biological affinities of compounds 3 and 7 (Figure 2A and C) could be positively affected by the 2-bromobenzoyl substituent able to accommodate in a deep binding pocket on the mPGES-1 surface. This moiety interacts by van der Waals contacts with amino acids of the cytoplasmic part and establishes π-stacking with Phe44ChainC and His53ChainC hydrogen bonds with Ser127, and a halogen bond between the bromine atom and the side chain of Aps49ChainC. Furthermore, the 3-phenylphenol and 2-aminobiphenyl moieties of 3 and 7 (Figure 2A and C), respectively, are able to establish a peculiar π-stacking with Tyr130ChainA and a hydrogen bond with Gln134ChainA. […]
mM glutathione, and 250 mM sucrose) and the protein concentration was defined. Potassium phosphate buffer (0.1 M, pH = 7.4) plus glutathione (2.5 mM) was added to dilute microsomes, which were then seeded in a 96-well plate. […]
preincubated for 15 min on ice. MK886 (10 µM) and MD-52 (1 µM) were used as reference drugs.
The reactions started by adding 20 µM of PGH2, and 1 min later, 100 µl of a solution containing FeCl3 (40 mM), citric acid (80 mM), and 11β-PGE 2 (10 µM) were added for stopping the conversion of PGH2. After the extraction of PGE2 and 11β-PGE 2 (internal stardard) by solid-phase extraction, […]

The target in a further experiment is T2, COX-2 (Homo sapiens, UniProt P35354).
T2 sequence (P35354 18-604): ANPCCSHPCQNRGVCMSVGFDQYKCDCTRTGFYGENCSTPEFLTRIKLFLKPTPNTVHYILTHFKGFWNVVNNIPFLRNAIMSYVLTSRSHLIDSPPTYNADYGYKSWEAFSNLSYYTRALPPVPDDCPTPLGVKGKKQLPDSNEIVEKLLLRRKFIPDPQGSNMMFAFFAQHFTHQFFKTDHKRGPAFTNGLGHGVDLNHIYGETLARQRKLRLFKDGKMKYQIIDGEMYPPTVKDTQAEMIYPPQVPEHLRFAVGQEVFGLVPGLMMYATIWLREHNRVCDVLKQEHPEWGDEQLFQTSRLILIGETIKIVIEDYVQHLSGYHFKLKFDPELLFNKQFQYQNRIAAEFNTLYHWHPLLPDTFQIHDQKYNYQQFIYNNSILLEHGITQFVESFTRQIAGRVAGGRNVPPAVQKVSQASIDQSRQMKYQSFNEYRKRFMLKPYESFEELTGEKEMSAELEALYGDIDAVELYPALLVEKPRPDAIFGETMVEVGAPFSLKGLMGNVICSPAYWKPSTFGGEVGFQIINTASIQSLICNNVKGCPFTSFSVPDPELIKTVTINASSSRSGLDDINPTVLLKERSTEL
Put plainly: Cell-free COXs activity assay, COX-2. It is filed as biochemical. The following applies: percentage of uninhibited control (100%), n = 3, n.i.: no inhibitory activity observed, read-out: COX-2 residual activity (%). The method, then:
Cell-free COXs activity assay
Isolated COX-1 (ovine) and COX-2 (human) were used for the evaluation of the activity of test compounds 3, 6, 7, and 9 on cyclooxygenases. COXs were diluted using Tris buffer (100 mM, pH = […]
8) plus 5 mM glutathione, 100 µM EDTA and 5 µM hemoglobin) to a final concentration of 50 U/mL for COX-1 and 20 U/mL for COX-2, and pre-incubated with test compounds 3, 6, 7, and 9 (10 µM) or vehicle (0.1% DMSO) over 5 min at rt. After 1 min at 37 °C, reactions were started after addition of arachidonic acid to a final concentration of 5 µM for COX-1 and 2 µM for COX-2. After 5 min at 37 °C, 1 mL of ice-cold methanol was added for stopping the reactions on ice. Then, PGB 1 as internal standard and 530 µl PBS plus HCl were added, and solid-phase extraction was performed as reported before.4-6, 17-19 COXs product formation (12-HHT) was determined using RP-HPLC. 4-6, 17-19 Indomethacin (10 µM) and celecoxib (5 µM) were used as reference drugs.
Expression, purification and activity assay of human recombinant sEH
Human recombinant sEH was expressed in Sf9 cells and was infected using a baculovirus, provided by Dr. B. Hammock, University of California, Davis, CA. After 72 hours, cells were pelleted and sonicated (3 × 10 sec) at 4 °C in lysis buffer (50 mM NaHPO 4, pH = 8, 300 mM NaCl, 10% glycerol, 1 mM EDTA, 1 mM phenylmethanesulfonyl fluoride, 10 µg/mL of leupeptin, and 60 µg/mL of soybean trypsin inhibitor). Lysates were centrifuged over 60 min at 4 °C (100,000 × g), and supernatants were collected and submitted to a benzylthio-sepharose-affinity chromatography for sEH purification by elution with 4-fluorochalcone oxide in PBS plus 1 mM DTT and 1 mM EDTA.720 […]
DMSO) for 15 min at rt. 50 µM 3-phenyl-cyano(6-methoxy-2-naphthalenyl)methyl ester-2-oxiraneacetic acid (PHOME), a non-fluorescent compound, was added for starting the reaction.
PHOME is enzymatically converted into a fluorescent compound, 6-methoxy-naphtaldehyde, detectable by using a spectrofluorometer setting λ em = 465 nm, λ ex = 330 nm. After 60 min, ZnSO 4

On to `Cc1cc(C(=O)Nc2nnc(-c3ccc(-c4ccccc4N)cc3)s2)cc(Cl)n1` [compound 6], for which, at mPGES-1, the remaining activity at 10 µM worked out at 31.7% and the IC50 turned out to be 3100 ± 600 nM. On COX-2, the remaining activity at 10 µM is 83.1%.

With `O=C(Nc1nnc(-c2ccc(-c3cccc(O)c3)cc2)s1)c1ccccc1Br` [compound 3], the remaining activity at 10 µM was found to be 8.4% on mPGES-1 and 65.4% at COX-2. Besides, the IC50 on mPGES-1 is 200 nM.

Turning to `Nc1ccccc1-c1ccc(-c2nnc(NC(=O)c3c(Cl)ccnc3Cl)s2)cc1` [compound 9], the remaining activity at 10 µM worked out at 20.9% at mPGES-1 and 72.7% at COX-2. The IC50 at mPGES-1 amounted to 1700 ± 300 nM.

Consider `Nc1ccccc1-c1ccc(-c2nnc(NC(=O)c3ccccc3Br)s2)cc1` [compound 7], for which, at mPGES-1, the remaining activity at 10 µM was 16.7% and the IC50 is 150 nM. In addition, the remaining activity at 10 µM on COX-2 worked out at 194%.
